# Measured values taken from publication PMC2231820 (The Journal of General Physiology, 2000).
# Changes are numbered by the printed parent chain. Like-named read-outs stand apart in the source and are kept apart here.
# Key:
# [1] = target: T1, mouse olfactory (Molf) CNG channel, α homomultimer (Mus musculus, UniProt Q62398, M2V); format: cell-based
# T1 sequence (Q62398 1-664 M2V): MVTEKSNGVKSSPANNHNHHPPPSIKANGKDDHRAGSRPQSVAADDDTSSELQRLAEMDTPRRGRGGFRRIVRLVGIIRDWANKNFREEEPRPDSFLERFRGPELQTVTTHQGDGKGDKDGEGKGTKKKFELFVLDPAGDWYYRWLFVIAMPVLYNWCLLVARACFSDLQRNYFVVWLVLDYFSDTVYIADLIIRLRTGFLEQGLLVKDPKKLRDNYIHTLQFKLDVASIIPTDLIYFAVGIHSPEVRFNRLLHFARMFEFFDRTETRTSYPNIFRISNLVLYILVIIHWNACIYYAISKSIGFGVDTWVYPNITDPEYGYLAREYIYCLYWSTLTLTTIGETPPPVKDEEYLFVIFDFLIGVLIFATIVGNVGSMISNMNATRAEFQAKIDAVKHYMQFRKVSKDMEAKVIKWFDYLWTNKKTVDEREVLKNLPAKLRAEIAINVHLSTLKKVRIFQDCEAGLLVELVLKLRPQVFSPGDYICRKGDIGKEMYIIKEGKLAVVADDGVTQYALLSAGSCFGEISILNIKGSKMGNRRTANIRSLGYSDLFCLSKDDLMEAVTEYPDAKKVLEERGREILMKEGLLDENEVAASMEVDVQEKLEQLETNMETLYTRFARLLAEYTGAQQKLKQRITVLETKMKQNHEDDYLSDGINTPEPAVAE
# Rolf G204E CNG channel = target: T2, Rolf G204E CNG channel (Rattus norvegicus, UniProt Q00195, G204E); format: cell-based; details: for Hill coefficient n of cGMP activation: 2 patches
# T2 sequence (Q00195 1-664 G204E): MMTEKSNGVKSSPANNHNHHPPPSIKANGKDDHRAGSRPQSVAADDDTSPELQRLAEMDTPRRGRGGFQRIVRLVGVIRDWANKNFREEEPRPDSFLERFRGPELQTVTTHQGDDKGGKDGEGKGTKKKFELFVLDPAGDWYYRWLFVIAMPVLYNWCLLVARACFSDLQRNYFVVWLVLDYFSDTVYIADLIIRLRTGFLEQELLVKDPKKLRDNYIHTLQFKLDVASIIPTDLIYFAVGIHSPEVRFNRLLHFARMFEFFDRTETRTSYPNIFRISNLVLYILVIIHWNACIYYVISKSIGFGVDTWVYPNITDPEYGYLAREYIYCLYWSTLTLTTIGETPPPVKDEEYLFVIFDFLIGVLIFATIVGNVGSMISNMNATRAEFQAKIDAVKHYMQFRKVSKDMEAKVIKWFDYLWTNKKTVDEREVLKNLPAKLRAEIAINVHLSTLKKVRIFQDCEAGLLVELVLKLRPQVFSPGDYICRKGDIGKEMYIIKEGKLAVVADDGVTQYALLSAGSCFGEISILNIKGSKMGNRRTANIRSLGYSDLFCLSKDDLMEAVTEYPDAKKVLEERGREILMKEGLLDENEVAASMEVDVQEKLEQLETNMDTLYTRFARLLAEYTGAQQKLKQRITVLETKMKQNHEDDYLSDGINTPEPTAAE
# Rolf G204D CNG channel = target: T3, Rolf G204D CNG channel (Rattus norvegicus, UniProt Q00195, G204D); format: cell-based
# T3 sequence (Q00195 1-664 G204D): T2 sequence (Q00195 1-664 G204E) with E204D
# [2] = target: T4, bovine rod (Brod) CNG channel, α homomultimer (Bos taurus, UniProt Q00194); details: saturating 2 mM cGMP, ref Crary et al. 2000; cited from earlier work
# T4 sequence (Q00194 1-690): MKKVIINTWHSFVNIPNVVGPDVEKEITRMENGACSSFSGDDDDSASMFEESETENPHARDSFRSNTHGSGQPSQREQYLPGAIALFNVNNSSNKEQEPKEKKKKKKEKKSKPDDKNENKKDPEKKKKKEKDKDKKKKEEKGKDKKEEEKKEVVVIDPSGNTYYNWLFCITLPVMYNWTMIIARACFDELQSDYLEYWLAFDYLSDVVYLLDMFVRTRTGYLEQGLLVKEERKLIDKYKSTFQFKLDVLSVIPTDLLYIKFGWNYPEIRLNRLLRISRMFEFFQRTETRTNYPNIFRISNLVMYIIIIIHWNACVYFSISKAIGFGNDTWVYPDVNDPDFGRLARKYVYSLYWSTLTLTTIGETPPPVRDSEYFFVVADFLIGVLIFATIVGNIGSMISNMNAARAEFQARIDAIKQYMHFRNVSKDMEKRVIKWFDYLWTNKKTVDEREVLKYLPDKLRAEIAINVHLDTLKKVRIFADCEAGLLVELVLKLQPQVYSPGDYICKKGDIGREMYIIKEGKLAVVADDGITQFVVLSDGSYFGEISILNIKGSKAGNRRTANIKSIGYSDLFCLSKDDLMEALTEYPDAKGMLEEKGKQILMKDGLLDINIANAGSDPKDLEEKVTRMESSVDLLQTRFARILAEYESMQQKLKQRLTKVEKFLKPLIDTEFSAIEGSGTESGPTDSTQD
# [3] = read-out: Percent inhibition by tetracaine
compound,measurement,setting,value
"CCCCNc1ccc(C(=O)OCCN(C)C)cc1 [Tetracaine, tetracaine]",inhibition at 40 µM,[1]; [3],18.8%
same,inhibition at 40 µM,Rolf G204E CNG channel; [3],76.4%
same,IC50,Rolf G204D CNG channel,10.8 µM
Nc1nc2c(ncn2[C@@H]2O[C@@H]3COP(=O)(O)O[C@H]3[C@H]2O)c(=O)[nH]1 [cGMP],I/Imax of cGMP-activated current,"[1]; Molf, 1 μM cGMP, +100 mV",0.15
same,Hill coefficient n of cGMP activation,"Rolf G204E CNG channel; Rolf G204E, +100 mV",1.7
same,Hill coefficient n of cGMP activation,"Rolf G204E CNG channel; Rolf G204E, −100 mV",1.7
diacylglycerol [DAG],inhibition of cGMP-activated current by DAG (in words),"[1]; Molf, 12 μM DAG, saturating cGMP",only partial inhibition
same,DAG maximal percent inhibition (INmax),"[1]; Molf, saturating 100 μM cGMP",17%
same,Hill coefficient n of DAG inhibition,"[1]; Molf, saturating 100 μM cGMP",0.8
same,DAG maximal percent inhibition (INmax),"Rolf G204E CNG channel; Rolf G204E, saturating 100 μM cGMP",100%
same,DAG concentration that fully suppresses cGMP-activated currents,"Rolf G204E CNG channel; Rolf G204E, saturating cGMP",~3 µM
same,DAG maximal percent inhibition (INmax),[2],100%
same,Hill coefficient n of DAG inhibition,[2],1.7
